Measured values taken from patent EP0727211A1, “Use of src SH2 specific compounds to treat a bone resorption disease” (SMITHKLINE BEECHAM CORPORATION, priority 1995, dated 1996).

Target: T1, human lck SH2 domain (Homo sapiens, UniProt P06239)
T1 construct: Cloning and expression of human lck SH2 domain containing tags and an enterokinase proteolytic cleavage site; made in house; host or cells: E. coli AR120
Assay: SH2 domain / pY peptide binding assay (ELISA-based, 96 well plate), lck SH2
Conditions: for Ki: Ki calculated from IC50 by the expanded equation, Table II; for IC50: cloned human SH2 domain fusion protein, 0.1 uM biotinylated pY peptide, Table I
Protocol: The inhibitory activity of compounds at the different human SH2 domains was determined in vitro using SH2 domains expressed as fusion proteins in E. coli. The SH2 domains used herein were the human forms of the src SH2 domain, Grb2 SH2 domain, lck SH2 domain, fyn SH2 domain, SH-PTP2 SH2 domain, p85 SH2 domain and hcp SH2 domain.
The fusion proteins containing the src, lck and hcp SH2 domains were expressed as the general sequence: DET1-DET2-spacer-ek-SH2, where DETI, DET2, spacer, ek and SH2 are as described below. DET1 ("defined epitope tag 1") (SEQ ID NO: 1) is an 11 amino acid sequence found in the Human Immunodeficiency Virus Type 1 (HIV-1) envelope protein gp120 (or gp160). Monoclonal antibodies to various epitopes of HIV-1 gp120 (or gp160) are known in the art, see, for example U.S. Patent 5,166,050. One preferred example is monoclonal antibody 178.1 (see, e.g., Thiriart et al., J. Immunol., 143:1832-1836 (1989)), which was prepared by immunization of mice with a yeast-expressed HIV-1 gp160 molecule from strain BH10 (Ratner et al., Nature, 313:277-284 (1985)). This tag was used for detection of expression (by Western blot), for purification of the protein (by affinity chromatography), and for configuring assays in which the fusion protein was captured or immobilized using the 178.1 antibody. DET2 is a hexahistidine sequence tag (SEQ ID NO: 2) which binds to nickel-containing resins and was used for purification purposes. Spacer (SEQ ID NO: 3) was utilized to design a BamH1 restriction site at the indicated position of the construct. The term -ekrefers to a recognition sequence (SEQ ID NO: 4) for the enterokinase protease which provides for the optional removal of the tags from the SH2 domain, thus producing an SH2 domain that contains no extraneous amino acids. SH2 domains which contain no extraneous amino acids are preferable to tagged protein for crystallography studies. SH2 refers to the SH2 domains of different proteins.
Cloning and expression of human lck SH2 domain containing tags and an enterokinase proteolytic cleavage site (DET1-DET2-spacer-ek-lck SH2).
A DNA sequence encoding protein ek-lck SH2 was PCR amplified from a cDNA clone containing the human lck gene (Genbank accession number M36881) using the following primers: [formula]
The PCR product was digested with BamHI and XbaI, followed by isolation of the digested fragment on an agarose gel. The fragment was ligated into BamHI-XbaI-digested expression vector containing the tagged chicken src gene DET1-DET2-spacer-SH2 described in Procedure 1 above. In that vector, the BamHI site is located in between the coding regions for DET2 and SH2, and the XbaI site is located after the 3' end of the SH2 coding region. Thus, the ek-lck SH2 sequence replaced the src SH2 sequence in the above vector. The ligation reaction was used to transform E. coli MM294cI^+. The construct containing […] was confirmed by DNA sequencing (SEQ ID NO: 6) and induced in E. coli strain AR120 as described in Procedure 1 above. A Coomassie-Blue-stained, Western-blot-positive induced protein band with an apparent molecular weight of 17,000 was observed after nalidixic acid induction.
Cells were lysed at neutral pH by sonication in the presance of lysozyme. After centrifugation, the soluble extract was chromatographed on a Ni^++NTA column. After washing the column with equilibration buffer (Tris buffer pH 8 containing 0.5 M NaCl) and the same buffer containing 15 mM imidazole, the protein was eluted in highly purified form with 25 mM imidazole in equilibration buffer.
The binding assays for the SH2 domains and pY peptides were performed in an ELISA-based 96 well plate assay. In Millipore 96 well filter plates, hydrophilic Durapore® (pore size 0.65um Cat. No. MADVN6550), was added 2 ul (50% suspension) of Protein-G Sepharose (available from Pharmacia of N.J. Cat. No. 17-0618-01) and either 2 ul of 2 mg/ml of MAB178. […]

T1 sequence (P06239 127-224 limits assumed): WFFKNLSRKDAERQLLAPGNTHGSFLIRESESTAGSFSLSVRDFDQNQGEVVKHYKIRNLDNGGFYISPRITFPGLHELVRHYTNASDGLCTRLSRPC

Which Ki does the source give for “4-acetamido-benzamido-trans-4-methyl-cyclohexyl-N-1-(amino-R-2-(methoxy methyl)-pyrrolidine) carboxamide [Compound 8]” here?
The Ki was 360 µM.

What about the IC50 of the same compound?
The IC50 was 126 µM.

For `Cc1nnc(SCC2=C(C(=O)O)N3C(=O)[C@@H](NC(=O)C(N)c4ccc(C(=O)O)cc4)[C@H]3SC2)s1` (stereo partly drawn) [Compound 1, 7-[D,L-α-Amino-α-(4-carboxyphenyl)acetamido]-3-[2-(5-methyl-1,3,4-thiadiazolyl)thiomethyl]Δ^3-cephem-4-carboxylic Acid], which IC50 is on record?
The IC50 was 6 µM.

Which results are given for `N[C@@H](Cc1cc(Br)c(Oc2ccc(O)c(Cc3ccc(O)nn3)c2)c(Br)c1)C(=O)O` [Compound 2, L-3,5-Dibromo-3'-(6-oxo-3(1H)-pyridazinylmethyl)-thyronine]?
Ki: > 1000 µM; IC50: > 300 µM

For `Cc1nc2sc3c(c2c2[nH][nH]c(=O)c12)CCC1(C3)OCCO1` [Compound 3, 8,8-Ethylenedioxy-2,3,7,8,9,10-hexahydro-4-methyl-1H-benzo[b]thieno[2,3-b]pyrazolo[3,4-d]pyridin-3-one], which Ki is on record?
Its Ki is 11 µM.

What about the IC50 of the same compound?
The IC50 was 22.9 µM.

For `Cc1ccc(C(=O)c2ccc(C(=O)c3ccc(CC=O)cc3)cc2)cc1` [Compound 4, 4-[4-(4-Methylbenzoyl)benzoyl]phenylacetaldehyde], which Ki is on record?
Its Ki is 163 µM.

And the IC50?
The IC50 was 163 µM.

Which Ki does the source give for `Cc1nc2sc3c(c2c2c1c(=O)[nH]n2C)CCC1(C3)OCCO1` [Compound 5, 1,4-Dimethyl-8,8-ethylenedioxy-2,3,7,8,9,10-hexahydro-1H-benzo[b]thieno[2,3-b]pyrazolo[3,4-d]pyridin-3-one] here?
Its Ki is 149 µM.

And the IC50?
The IC50 was 100 µM.

For `CCCCCCNC(=O)[C@H]1CC[C@H](CNC(=O)c2ccc([N+](=O)[O-])cc2)CC1` [Compound 7, 4-nitro-benzamido-trans-4-methyl-cyclohexyl-N-hexyl carboxamide], which Ki is on record?
Its Ki is 320 µM.

And the IC50?
Its IC50 is 383 µM.

How did the Ki turn out when `CCCNC(=O)[C@H]1CC[C@H](CNC(=O)/C=C/c2ccc(C=O)cc2)CC1` [Compound 9, 4-formyl-E-cinnamido-trans-4-methyl-cyclohexyl-N-(propyl) carboxamide] was run?
The Ki was 146 µM.

What about the IC50 of the same compound?
Its IC50 is 200 µM.
